The text below walks through data of patent publication US10596127B2, “Composition for reducing the frequency of urination, method of making and use thereof” (WELLESLEY PHARMACEUTICALS, LLC, priority 2013, dated 2020).

The structures appear in SMILES notation.

Assay [1] relates to PGE2 secretion by mouse bladder cells. The assay can be described thus: PGE2 ELISA of mouse bladder cell culture supernatants. The assay is classed as cell-based. Particulars: stimulus alone, no analgesic (LPS 1 μg/ml, Carbachol (mM)), unstimulated <20.5. The protocol: Bladder cells were removed from euthanized animals C57BL/6 mice (8-12 weeks old) and cells were isolated by enzymatic digestion followed by purification on a Percoll gradient. […] Bladder slurries were enzymatically digested for 30 minutes at 37° C. Undigested fragments were further dispersed through a cell-trainer. The cell suspension was pelleted and added to a discontinue 20%, 40% and 75% Percoll gradient for purification on mononuclear cells. Each experiment used 50-60 bladders. […] Cells were cultured at 37° C. in a 5% CO2 atmosphere. Bladder cells were treated with analgesic solutions (50 well) either alone or together with carbachol (10-Molar, 50 μl/well), as an example of non-inflammatory stimuli, or lipopolysaccharide (LPS) of Salmonella typhimurium (1 μg/ml, 50 μl/well), as an example of […] stimuli. […] Cells were fixed, permeabilized and blocked for detection of Cyclooxygenase-2 (COX2) using a fluorogenic substrate. In selected experiment cells were stimulated 12 hours in vitro for analysis of COX2 responses […] More specifically, culture supernatants or PGE2 standards were added to the wells of a 96-well polystyrene microplate coated with a goat anti-mouse polyclonal antibody. After one hour incubation on a microplate shaker, an HRP-conjugated PGE2 was added and plates incubated for an additional two hours at room temperature. The plates were then washed and HRP substrate solution added to each well. The color was allowed to develop for 30 min and the reaction stopped by addition sulfuric acid before reading the plate at 450 nm with wavelength correction at 570 nm. Results are expressed as mean pg/ml of PGE2.
In general terms: ELISA stands for enzyme-linked immunosorbent assay.

The subject of assay [2] is COX2 expression by normal human bladder smooth muscle cells. Nature of the assay: Cell-based ELISA of total COX2 in normal human bladder smooth muscle cells. On the procedure:
COX2 responses were analyzed by a Cell-Based ELISA using Human/mouse total COX2 immunoassay (R&D Systems), following the instructions of the manufacturer. Briefly, after cells fixation and permeabilization, a mouse anti-total COX2 and a rabbit anti-total GAPDH were added to the wells of the clear-bottom black 96-well cell culture microculture plates. After incubation and washes, an HRP-conjugated anti-mouse IgG and an AP-conjugated anti-rabbit IgG were added to the wells. Following another incubation and set of washes, the HRP- and AP-fluorogenic substrates were added. Finally, a Victor® V multilabel plate reader (PerkinElmer) was used to read the fluorescence emitted at 600 nm (COX2 fluorescence) and 450 nm (GAPDH fluorescence). Results are expressed as relative levels of total COX2 as determined by relative fluorescence unit (RFUs) and normalized to the housekeeping protein GAPDH.
(§1) Normal human bladder smooth muscle cells were isolated by enzymatic digestion from macroscopically normal pieces of human bladder. Cells were expended in vitro by culture at 37° C. in a 5% CO2 atmosphere in RPMI 1640 supplemented with 10% fetal bovine serum, 15 mM HEPES, 2 mM L-glutamine, 100 U/ml penicillin, and […] of streptomycin and passage once a week by treatment with trypsin to detach cells followed by reseeding in a new culture flask. The first week of culture, the culture medium was supplemented with 0.5 ng/ml epidermal growth factor, 2 ng/ml fibroblast growth factor, and 5 μg/ml insulin.
(§2) […] When no other effectors were added to the cells, 50 μl of RPMI 1640 without fetal bovine serum were added to the wells to adjust the final volume to 200 μl.
(§3) After 24 hours of culture, 150 μl of culture supernatants were collected, spun down for 2 min at 8,000 rpm at 4° C. to remove cells and debris and stored at −70° C. for analysis of Prostaglandin E2 (PGE2) responses by ELISA. Cells were fixed, permeabilized and blocked for detection of COX2 using a fluorogenic substrate. In selected experiment cells were stimulated 12 hours in vitro for analysis of COX2, PGE2 and cytokine responses.
(§4) COX2 and PGE2 responses were analyzed as described in Example 3. Cytokine responses were analyzed as described in Example 2.

The subject of assay [3] is PGE2 secretion by normal human bladder smooth muscle cells. The assay can be described thus: PGE2 ELISA of normal human bladder smooth muscle cell supernatants. The assay is classed as cell-based. The protocol: Prostaglandin E2 responses were analyzed by a sequential competitive ELISA (R&D Systems). More specifically, culture supernatants or PGE2 standards were added to the wells of a 96-well polystyrene microplate coated with a goat anti-mouse polyclonal antibody. After one hour incubation on a microplate shaker, an HRP-conjugated PGE2 was added and plates incubated for an additional two hours at room temperature. The plates were then washed and HRP substrate solution added to each well. The color was allowed to develop for 30 min and the reaction stopped by addition sulfuric acid before reading the plate at 450 nm with wavelength correction at 570 nm. Results are expressed as mean pg/ml of PGE2.
as §1, §2, §3, §4

The subject of assay [4] is TNFα secretion by normal human bladder smooth muscle cells. The assay can be described thus: TNFα ELISA of normal human bladder smooth muscle cell supernatants. The assay is classed as cell-based. The following applies: stimulus alone, no analgesic (Carbachol 10^−3 M; LPS 10 μg/ml); unstimulated <5.
[5] abbreviates: stimulus alone, no analgesic (Carbachol 10^−3 M; LPS 10 μg/ml), unstimulated <20.5.

With `C[N+](C)(C)CCOC(N)=O` [Carbachol, carbachol], the “PGE2 levels” value in assay [1] is <20.5 pg/mL. For the same compound, the “PGE2 levels (pg/ml)” value in assay [1] (listed as carbachol) is listed as “not detected”. The “COX2 responses to stimulus alone” value in assay [2] (no analgesic) was “induced low, but significant COX2 responses”. Besides, the “Total COX2 levels (Normalized RFUs) subject 2” value in assay [2] (stimulus alone, no analgesic (Carbachol 10^−3 M; LPS 10 μg/ml), unstimulated 199) was 462 Normalized RFUs. In assay [2] (stimulus alone, no analgesic (Carbachol 10^−3 M; LPS 10 μg/ml), unstimulated 230), the “Total COX2 levels (Normalized RFUs) subject 1” value amounted to 437 Normalized RFUs. The “PGE2 production in response to stimulus alone” value in assay [3] (no analgesic) is given as “induced production of PGE2”. Further, in assay [3] (setting [5]), the “PGE2 levels (pg/ml) Subject 1” value was 129 pg/mL and the “PGE2 levels (pg/ml) Subject 2” value came out at 104 pg/mL. Further, in assay [4], the “TNFα (pg/ml) Subject 1” value is 350 pg/mL and the “TNFα (pg/ml) Subject 2” value came out at 286 pg/mL.
